Our source for the IC50 values is ChEMBL document CHEMBL3826962, “Synthesis, biological evaluation and molecular docking of 2-phenyl-benzo[d]oxazole-7-carboxamide derivatives as potential Staphylococcus aureus Sortase A inhibitors” (Bioorg Med Chem Lett, 2016).

Each structure is given as a SMILES string. Where only a bound is given, the exact number is not on record here.

The nature of this assay: Inhibition of Staphylococcus aureus sortase A using Abz-LPETG-Dap(DNP)-NH2 as substrate preincubated for 1 hr followed by substrate addition by FRET assay.
With `CC(C)CNC(=O)c1cccc2nc(-c3ccc(COC(=O)c4ccc([N+](=O)[O-])cc4)cc3)oc12`, the half-inhibitory concentration (IC50) turned out to be 159 µM.
Turning to `CC(C)CNC(=O)c1cccc2nc(-c3ccc(COC(=O)Cc4ccc(O)c(O)c4)cc3)oc12`, the half-maximal inhibitory concentration (IC50) was determined as 64.4 µM.
`CC(C)CNC(=O)c1cccc2nc(-c3ccc(COC(=O)c4ccc(O)c(O)c4)cc3)oc12` displayed an IC50 of 20.6 µM.
`O=C(Cc1ccc(O)c(O)c1)OCc1ccc(-c2nc3ccccc3o2)cc1` yielded an IC50 above 200 µM.
In turn, `CC(C)CNC(=O)c1cccc2nc(-c3ccc(COC(=O)c4ccc(O)cc4O)cc3)oc12` registered a half-maximal inhibitory concentration (IC50) of 22.4 µM.
Molecule `CC(C)CNC(=O)c1cccc2nc(-c3ccc(COC(=O)Cc4ccc([N+](=O)[O-])c(O)c4)cc3)oc12` registered an IC50 of 87.4 µM.
The same measure for `CCCCNC(=O)c1cccc2nc(-c3ccc(COC(=O)/C=C/c4ccc(O)cc4)cc3)oc12`: 184 µM; for `CC(C)CNC(=O)c1cccc2nc(-c3ccc(COC(=O)c4ccc(O)c(O)c4O)cc3)oc12`: 19.8 µM; for `O=C(OCc1ccc(-c2nc3ccccc3o2)cc1)c1cccc(O)c1`: above 200 µM.
Then `CC(C)NC(=O)c1cccc2nc(-c3ccc(COC(=O)c4ccc(O)cc4)cc3)oc12`, with 46.3 µM; and `CC(C)CNC(=O)c1cccc2nc(-c3ccc(CNCc4ccccc4)cc3)oc12`, with 128 µM.
For `CC(C)CNC(=O)c1cccc2nc(-c3ccc(COC(=O)Cc4ccc(O)cc4)cc3)oc12`, the 50% inhibitory concentration (IC50) came to 73.2 µM.
Regarding `O=C(OCc1ccc(-c2nc3ccccc3o2)cc1)c1ccc(O)cc1`, the IC50 was above 200 µM.
`CC(C)CNC(=O)c1cccc2nc(-c3ccc(COC(=O)Cc4cccc(O)c4)cc3)oc12` displayed an IC50 of 81.4 µM.
`COc1ccc(NCc2ccc(-c3nc4cccc(C(=O)NCC(C)C)c4o3)cc2)cc1` had an IC50 of 65.5 µM. The IC50 values of the last two molecules are within 1.5-fold of each other.
`CC(C)CNC(=O)c1cccc2nc(-c3ccc(COC(=O)/C=C/c4ccc(O)cc4)cc3)oc12` yielded a 50% inhibitory concentration (IC50) of 87.4 µM.
Then `O=C(Cc1cccc(O)c1)OCc1ccc(-c2nc3ccccc3o2)cc1`, with above 200 µM.
The molecule `CCCCNCc1ccc(-c2nc3cccc(C(=O)NCC(C)C)c3o2)cc1` displayed a half-inhibitory concentration (IC50) of 136 µM.
`CC(C)NC(=O)c1cccc2nc(-c3ccc(COC(=O)Cc4ccc(O)cc4)cc3)oc12` registered an IC50 of 116 µM.
The same measure for `CC(C)CNC(=O)c1cccc2nc(-c3ccc(COC(=O)c4cccc(O)c4)cc3)oc12`: 26.1 µM; for `CCCCNC(=O)c1cccc2nc(-c3ccc(COC(=O)Cc4ccc(O)cc4)cc3)oc12`: 181 µM.
The molecule `CCCCNC(=O)c1cccc2nc(-c3ccc(COC(=O)Cc4cccc(O)c4)cc3)oc12` returned an IC50 of 177 µM.
In turn, `CC(C)NC(=O)c1cccc2nc(-c3ccc(COC(=O)c4cccc(O)c4)cc3)oc12` gave a half-maximal inhibitory concentration (IC50) of 144 µM.
As to `CCCCNC(=O)c1cccc2nc(-c3ccc(COC(=O)c4ccc(O)cc4)cc3)oc12`, the IC50 was 155 µM.
As to `COc1cc(OC)cc(C(=O)OCc2ccc(-c3nc4cccc(C(=O)NCC(C)C)c4o3)cc2)c1`, half-maximal inhibition (IC50) was put at 24.8 µM.
As for `CC(C)CNC(=O)c1cccc2nc(-c3ccc(COC(=O)c4ccccc4)cc3)oc12`, the concentration for half-maximal inhibition (IC50) worked out at 161 µM.
Consider `CC(C)CNC(=O)c1cccc2nc(-c3ccc(COC(=O)c4ccccc4[N+](=O)[O-])cc3)oc12`, for which the midpoint of inhibition, the IC50, lay at 155 µM.
In the case of `CCCCNC(=O)c1cccc2nc(-c3ccc(COC(=O)c4cccc(O)c4)cc3)oc12`, the IC50 stood at 161 µM.
`CC(C)NC(=O)c1cccc2nc(-c3ccc(COC(=O)Cc4ccc(O)c(O)c4)cc3)oc12`: the IC50 is 74.8 µM.
